≈ marks a conversion by molar mass, not a printed value. Entries after “also recorded” stand apart in the source; their conditions may differ. Read-outs that look alike come from different tables or passages of the source.
Tests used:
[1] = system: P. falciparum NF54; assay: In vitro [3H]hypoxanthine incorporation assay, P. falciparum NF54; assay type: cell-based, Plasmodium falciparum; conditions: for IC50: 16 h + 8 h incubation, read-out: IC50 (mean ± SD) for P. falciparum NF54 (n = 3)
Method: Human erythrocytes served as the host cells. In vitro antimalarial activity was measured using the [^3H]hypoxanthine incorporation assay ([36]) with strain NF54 of P. falciparum (obtained from Hoffmann-LaRoche Ltd.). The compounds were dissolved in dimethyl sulfoxide (DMSO) at a concentration of 10 mM, diluted in hypoxanthine-free culture medium, and titrated in duplicate over a 64-fold range in 96-well plates. […] The parasites were harvested onto glass fiber filters, and radioactivity was measured using a BetaPlate liquid scintillation counter (Wallac, Zurich, Switzerland). All assays were repeated at least three times. The results were recorded and expressed as a percentage of the untreated controls. […] In addition, for the PK-PD analysis of KAE609, an IC99 value was determined by transforming the data from a scintillation counter (Anscombe transformation) to account for Poissonian measurement error. […] Each of the three replicates was performed on a distinct 96-well plate. This has been accounted for in the fitting procedure by means of a Bayesian hierarchical model. The software used for parameter inference was Stan ([37]).

[2] = system: P. berghei GFP ANKA malaria strain PbGFPCON; assay: Dose-response efficacy in the P. berghei malaria mouse model; assay type: in vivo, female NMRI mice; conditions: for Hill slope: dose vs parasitemia model; for Pmax (maximum parasitemia) / Pmin (minimum parasitemia): sigmoid dose-response model, single oral doses 24 h postinfection; for Pmax (maximum parasitemia) / Pmin (minimum parasitemia) / ED90 (effective dose causing a 90% reduction in parasitemia): parasitemia 72 h postinfection; for ED90 (effective dose causing a 90% reduction in parasitemia): single oral dose 24 h postinfection; for Efficacy in the P. berghei mouse model: single oral doses 2.5 to 100 mg/kg
Description: All in vivo studies conducted at the Swiss Tropical and Public Health Institute (TPH) adhered to local and national regulations of laboratory animal welfare in Switzerland (permission no. 1731). For in vivo efficacy, female (specific-pathogen-free) […] (NMRI) mice were obtained from Janvier, Le Genest-Saint-Isle, France. Only mice without visible signs of disease were used for the study. Standard laboratory conditions were adopted for husbandry. In vivo antimalarial activity was assessed using groups of five female NMRI mice (20 to 22 g) intravenously infected on day zero with 2 × 10^7 erythrocytes parasitized with P. berghei GFP ANKA malaria strain PbGFPCON (a donation from A. P. Waters and C. J. Janse, Leiden University) ([39]). Untreated control mice typically died between day six and day seven postinfection. Experimental compounds were formulated in 10% ethanol, 30% PEG 400, and 60% of 10% vitamin E TPGS and were administered orally in a volume of 10 ml/kg. Dose-response efficacy studies were conducted for each spiroindolone analog. Doses of 2.5, 5, 10, 30, and 100 mg/kg were administered to groups of 5 mice each as a single dose at 24 h postinfection. Parasitemia, expressed as parasitized red blood cells (pRBCs) of >100 RBCs, was determined 72 h postinfection using standard flow cytometry techniques ([39]).
Data analysis was done using nonlinear mixed-effect modeling (NONMEM version VI 2.0), which analyzed the PD data from multiple dose groups obtained simultaneously from different experiments. Within NONMEM, first-order conditional estimation (FOCE) was the method used ([40]). The log-transformed dose and level of parasitemia were used for analysis. For each compound, a dose-response model was built, and the ED90 (effective dose lowering 90% of parasitemia) values were determined using equation 1 ([41]), where P is the parasitemia measured at any given dose, Pmax is the maximum level of parasitemia, Pmin is the minimum level of parasitemia, EZ50 is the dose required to produce 50% of the maximal effect, s is the Hill slope describing the steepness of the curve, and x is the dose (in mg/kg). 1 P=Pmin +{[Pmax−Pmin]/[1+10^(logEZ50−log x)×s]}

[3] = HT-equilibrium solubility; assay type: physicochemical; conditions: pH 6.8, HT-equilibrium solubility
Description: (§1) page 5: Running title: PreclinicalPK -PD of antimalarials 73 to high through put form at using in- house standard assa y protocols that are described in the 74 literature. […] 81 82 83 84 85 86 87 88 89 90 91 92 93 94 95 96 97 98 5

[4] = Intrinsic clearance in mouse liver microsomes; assay type: in vitro ADME; conditions: per mg protein
Description: (§2) page 5: Running title: PreclinicalPK -PD of antimalarials 73 to high through put form at using in- house standard assa y protocols that are described in the 74 literature. 75 (a)HT-Equilibrium solubilit y at pH 6.8( 1); (b)Parallel Artificial Membrane P ermeability Assa y 76 expressed in % fraction absorbed (FA) ( 2,3 ); (c)Apparent permeability from apical to […] 78 tested; (d)intrinsic clearance in mouse liver micro somes ex pressed as µ L/ min/mg protein, in 79 the presen ce of liver enzym es ( 6); (e)Mous e plasm a protein binding using rapid equilibrium […] 81 82 83 84 85 86 87 88 89 90 91 92 93 94 95 96 97 98 5

[5] = RBC to plasma partitioning; assay type: in vitro ADME; conditions: mean from 1 µM & 10 µM
Description: as §1

[6] = system: Caco-2 cells; assay: Caco-2 permeability; assay type: in vitro ADME; conditions: apical to basolateral
Description: as §2

[7] = Mouse plasma protein binding, rapid equilibrium dialysis; assay type: in vitro ADME
Description: as §2

Compound	IC50 [1] [nM]	Hill slope [2]	Pmax (maximum parasitemia) [2]	Pmin (minimum parasitemia) [2]	ED90 (effective dose causing a 90% reduction in parasitemia) [2] [mg/kg]	Solubility [3] [µM]	Hepatic CLint in mouse liver microsomes [4] [µL/min/mg]	RBC to Plasma Ratio [5]	Caco-2 Papp (A-B) [6]	Mouse PPB [7] [%]	Threshold (TRE), 2 × P. falciparum IC99 [1] [ng/mL]	IC50 ([1]; Plasmodium falciparum, NF54) [nM]	Complete cure (>30 days survival) ([2]; data not shown)	Solubility ([3]; aqueous buffer, thermodynamic from solid) [µM]	microsomal CLint ([4]; mouse, liver microsomes, read-out: Hepatic CLint in mouse liver microsomes) [µL/min/mg]	In vitro activity against P. falciparum [1]	Efficacy in the P. berghei mouse model [2]
C[C@H]1Cc2c([nH]c3ccc(Cl)cc23)[C@@]2(N1)C(=O)Nc1ccc(Cl)cc12 [(+)-2]	5.6 ± 0.9	−3.36	30.90	0.03	17.4	22 (≈ 8.19 µg/mL)	92	0.77									
C[C@H]1Cc2c([nH]c3cc(Cl)ccc23)[C@@]2(N1)C(=O)Nc1ccc(Cl)cc12 [(+)-3]	5.6 ± 0.7	−6.4	24.55	0.12	17.9	8 (≈ 2.98 µg/mL)	35	0.93	41.7 10-6 cm/sec	99.7							
C[C@H]1Cc2c([nH]c3ccc(F)cc23)[C@@]2(N1)C(=O)Nc1ccc(Cl)cc12 [(+)-4]	5.9 ± 0.9	−2.87	30.90	0.03	16.7	137 (≈ 48.7 µg/mL)	330	0.62	7.66 10-6 cm/sec	98.8							
C[C@H]1Cc2c([nH]c3cc(F)ccc23)[C@@]2(N1)C(=O)Nc1ccc(Cl)cc12 [(+)-5]	4.3 ± 0.4	−2.99	25.70	0.05	38.1	131 (≈ 46.6 µg/mL)	26	1.18	4.33 10-6 cm/sec	98.5							
C[C@H]1Cc2c([nH]c3cc(F)c(F)cc23)[C@@]2(N1)C(=O)Nc1ccc(Cl)cc12 [(+)-6]	0.33 ± 0.06	−2.03	32.36	0.09	17.3	169 (≈ 63.2 µg/mL)	41	1.12	5.55 10-6 cm/sec	99.5							
C[C@H]1Cc2c([nH]c3cc(Cl)c(F)cc23)[C@@]2(N1)C(=O)Nc1ccc(Cl)cc12 [(+)-7 (KAE609)]		−2.73	33.88	0.29	5.6						1	1.2 ± 0.2	complete cure	39 (≈ 15.2 µg/mL)	28		
C[C@@H]1Cc2c([nH]c3cc(F)c(F)cc23)[C@]2(N1)C(=O)Nc1ccc(Cl)cc12 [(−)-6]	105 ± 20					112 (≈ 41.9 µg/mL)	36	0.81	4.8 10-6 cm/sec	99.6						submicromolar	no efficacy; also recorded: poor efficacy regardless of dose
C[C@@H]1Cc2c([nH]c3cc(Cl)c(F)cc23)[C@]2(N1)C(=O)Nc1ccc(Cl)cc12 [(−)-7]	210 ± 19					35 (≈ 13.7 µg/mL)	21	0.52	1.73 10-6 cm/sec	99.4						submicromolar	no efficacy; also recorded: poor efficacy regardless of dose

Reference: PMC4335872, “Pharmacokinetic-Pharmacodynamic Analysis of Spiroindolone Analogs and KAE609 in a Murine Malaria Model” (Antimicrobial Agents and Chemotherapy, 2015)
